# Measured values published in patent US20130131043A1, “PYRAZOLE COMPOUNDS AS JAK INHIBITORS” (priority 2010, published 2013).
# Tests used:
# [1] = NOD mouse model of type I diabetes; cited from earlier work
# [2] = in vivo; cited from earlier work
# [3] = in vivo; cited from earlier work; remark: listed apart in the source
# [4] = biological target: T1, JAK2 (Homo sapiens, UniProt O60674); test: Kinobeads assay, JAK2 (competition binding in cell lysate, dot blot detection); details: mixed Molt4/Ramos lysate
# T1 construct: endogenous in cells; host or cells: Molt4 (ATCC CRL-1582) and Ramos (ATCC CRL-1596) cell lysate; mixed Molt4/Ramos lysate 1:2
# Procedure, shortened: (§1)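 Competition binding of compound against immobilized aminopyrido-pyrimidine affinity beads in mixed Molt4/Ramos lysate (1:2, 10 mg/mL protein), 3 h in cold room. Bead-bound JAK2 or JAK3 eluted and quantified by antibody dot blot with infrared detection; IC50 from 9-step 1:3 dose-response curves.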
# [5] = biological target: T2, JAK3 (Homo sapiens, UniProt P52333); test: Kinobeads assay, JAK3 (competition binding in cell lysate, dot blot detection); details: mixed Molt4/Ramos lysate
# T2 construct: endogenous in cells; host or cells: Molt4 (ATCC CRL-1582) and Ramos (ATCC CRL-1596) cell lysate; mixed Molt4/Ramos lysate 1:2
# T2 sequence (P52333 1-1124): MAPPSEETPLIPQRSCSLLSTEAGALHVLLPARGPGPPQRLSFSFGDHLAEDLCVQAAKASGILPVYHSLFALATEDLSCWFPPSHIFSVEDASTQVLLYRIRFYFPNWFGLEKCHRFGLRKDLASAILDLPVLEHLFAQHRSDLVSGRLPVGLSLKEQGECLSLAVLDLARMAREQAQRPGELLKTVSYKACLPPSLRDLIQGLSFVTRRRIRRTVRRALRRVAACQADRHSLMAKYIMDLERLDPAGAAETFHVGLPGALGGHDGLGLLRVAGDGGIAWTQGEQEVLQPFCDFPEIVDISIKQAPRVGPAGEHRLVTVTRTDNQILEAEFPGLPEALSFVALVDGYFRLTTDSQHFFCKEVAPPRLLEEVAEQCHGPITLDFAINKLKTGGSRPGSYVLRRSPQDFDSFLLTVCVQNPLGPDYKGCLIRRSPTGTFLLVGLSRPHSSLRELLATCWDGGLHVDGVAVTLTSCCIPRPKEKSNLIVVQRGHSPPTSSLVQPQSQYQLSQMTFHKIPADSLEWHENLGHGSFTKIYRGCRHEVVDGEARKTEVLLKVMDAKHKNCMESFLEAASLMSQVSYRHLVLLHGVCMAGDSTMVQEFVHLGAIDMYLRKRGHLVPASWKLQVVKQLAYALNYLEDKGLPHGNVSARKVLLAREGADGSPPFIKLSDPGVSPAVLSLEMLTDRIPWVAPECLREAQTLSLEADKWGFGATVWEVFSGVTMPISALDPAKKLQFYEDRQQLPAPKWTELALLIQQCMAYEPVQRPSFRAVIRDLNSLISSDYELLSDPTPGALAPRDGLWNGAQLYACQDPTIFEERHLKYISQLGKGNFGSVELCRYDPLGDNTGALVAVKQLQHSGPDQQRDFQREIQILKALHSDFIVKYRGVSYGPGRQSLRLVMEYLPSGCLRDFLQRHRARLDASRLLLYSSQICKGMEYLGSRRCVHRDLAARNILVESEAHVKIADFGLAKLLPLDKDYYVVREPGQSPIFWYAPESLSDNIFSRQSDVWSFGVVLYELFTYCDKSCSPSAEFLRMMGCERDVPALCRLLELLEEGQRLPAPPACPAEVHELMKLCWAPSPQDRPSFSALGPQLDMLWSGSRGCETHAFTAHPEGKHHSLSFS
# Procedure, shortened: as §1
# T1 sequence (O60674 whole entry): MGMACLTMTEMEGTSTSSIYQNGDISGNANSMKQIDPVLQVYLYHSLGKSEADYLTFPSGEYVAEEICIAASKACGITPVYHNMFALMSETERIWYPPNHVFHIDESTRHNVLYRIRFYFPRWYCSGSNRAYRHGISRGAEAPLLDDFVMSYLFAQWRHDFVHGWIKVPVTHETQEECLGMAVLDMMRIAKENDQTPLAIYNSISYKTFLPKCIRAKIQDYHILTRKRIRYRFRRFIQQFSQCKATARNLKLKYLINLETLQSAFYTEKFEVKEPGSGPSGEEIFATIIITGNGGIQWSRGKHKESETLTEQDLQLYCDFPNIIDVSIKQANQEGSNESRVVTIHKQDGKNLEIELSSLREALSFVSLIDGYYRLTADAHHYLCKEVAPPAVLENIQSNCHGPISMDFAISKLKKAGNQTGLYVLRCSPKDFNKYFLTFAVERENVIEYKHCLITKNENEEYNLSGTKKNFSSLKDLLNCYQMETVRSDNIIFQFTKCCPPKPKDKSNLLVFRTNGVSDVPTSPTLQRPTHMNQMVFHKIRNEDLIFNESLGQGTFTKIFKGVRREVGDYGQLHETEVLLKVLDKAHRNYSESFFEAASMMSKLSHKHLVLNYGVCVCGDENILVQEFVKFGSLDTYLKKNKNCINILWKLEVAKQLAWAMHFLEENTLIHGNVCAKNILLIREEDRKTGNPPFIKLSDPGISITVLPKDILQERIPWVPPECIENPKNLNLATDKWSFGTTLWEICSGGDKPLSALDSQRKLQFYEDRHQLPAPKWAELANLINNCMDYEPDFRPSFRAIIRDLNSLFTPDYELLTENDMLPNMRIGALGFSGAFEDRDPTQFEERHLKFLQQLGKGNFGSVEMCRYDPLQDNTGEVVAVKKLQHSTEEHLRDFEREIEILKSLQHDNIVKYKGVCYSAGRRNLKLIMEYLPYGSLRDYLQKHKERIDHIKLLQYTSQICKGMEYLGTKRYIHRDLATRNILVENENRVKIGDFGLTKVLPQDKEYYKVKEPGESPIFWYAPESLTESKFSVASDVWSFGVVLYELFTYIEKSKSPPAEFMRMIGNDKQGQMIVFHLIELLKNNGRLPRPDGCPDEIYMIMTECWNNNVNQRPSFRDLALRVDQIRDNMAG
Compound,IC50 [4] [nM],IC50 [5] [nM],spontaneous autoimmune diabetes development [1],severity of GVHD [2],efficacy in an animal model of organ transplantation [3]
COc1cc2ncnc(Nc3ccc(O)cc3)c2cc1OC [JANEX-1],,,prevent spontaneous autoimmune diabetes development,attenuate the severity of GVHD,
"C[C@@H]1CCN(C(=O)CC#N)C[C@@H]1N(C)c1ncnc2[nH]ccc12 [CP-690,550]",,,,,show efficacy
"CS(=O)(=O)CCC(=O)N1CCCC(Cn2ncc3cnc(Nc4cnn(CC(F)F)c4)nc32)C1 (centres unmarked) [Example 59, 1-(3-((6-((1-(2,2-difluoroethyl)-1H-pyrazol-4-yl)amino)-1H-pyrazolo[3,4-d]pyrimidin-1-yl)methyl)piperidin-1-yl)-3-(methylsulfonyl)propan-1-one]",> 10000,100 to 1000,,,
"CCOC(=O)N1CCCC(Cn2ncc3cnc(Nc4cnn(C)c4)nc32)C1 (centres unmarked) [Example 36, ethyl 3-((6-((1-methyl-1H-pyrazol-4-yl)amino)-1H-pyrazolo[3,4-d]pyrimidin-1-yl)methyl)piperidine-1-carboxylate]",> 10000,100 to 1000,,,
"Cn1cc(Nc2ncc3cnn(CC4CCCN(C(=O)C5CCOCC5)C4)c3n2)cn1 (centres unmarked) [Example 28, (3-((6-((1-methyl-1H-pyrazol-4-yl)amino)-1H-pyrazolo[3,4-d]pyrimidin-1-yl)methyl)piperidin-1-yl)(tetrahydro-2H-pyran-4-yl)methanone]",> 10000,100 to 1000,,,
"CC(C)NC(=O)CN1CCC(Cn2ncc3cnc(Nc4cnn(C)c4)nc32)C1 (centres unmarked) [Example 68, N-isopropyl-2-(3-((6-((1-methyl-1H-pyrazol-4-yl)amino)-1H-pyrazolo[3,4-d]pyrimidin-1-yl)methyl)pyrrolidin-1-yl)acetamide]",> 10000,100 to 1000,,,
"Cn1cc(Nc2ncc3cnn(CC4CCN(CCC#N)C4)c3n2)cn1 (centres unmarked) [Example 53, 3-(3-((6-((1-methyl-1H-pyrazol-4-yl)amino)-1H-pyrazolo[3,4-d]pyrimidin-1-yl)methyl)pyrrolidin-1-yl)propanenitrile]",1000 to 10000,< 100,,,

# Second part, led by results:
IC50 [4] [nM],IC50 [5] [nM],Compound,spontaneous autoimmune diabetes development [1],severity of GVHD [2],efficacy in an animal model of organ transplantation [3]
1000 to 10000,< 100,Cn1cc(Nc2ncc3cnn(CC4CCCN(S(C)(=O)=O)C4)c3n2)cn1 (centres unmarked) [Example 1],,,
1000 to 10000,< 100,"C[C@H]1CCC[C@H](n2ncc3cnc(Nc4cnn(C)c4)nc32)C1 (racemic) [Example 19, Rac-trans-N-(1-methyl-1H-pyrazol-4-yl)-1-(3-methylcyclohexyl)-1H-pyrazolo[3,4-d]pyrimidin-6-amine]",,,
1000 to 10000,100 to 1000,"C[C@H]1CCCC[C@H]1n1ncc2cnc(Nc3cnn(C)c3)nc21 (racemic) [Example 11, Rac-cis-N-(1-methyl-1H-pyrazol-4-yl)-1-(2-methylcyclohexyl)-1H-pyrazolo[3,4-d]pyrimidin-6-amine]",,,
1000 to 10000,< 100,"CC(C)S(=O)(=O)N1CCCC(Cn2ncc3cnc(Nc4cnn(CC(F)F)c4)nc32)C1 (centres unmarked) [Example 61, N-(1-(2,2-difluoroethyl)-1H-pyrazol-4-yl)-1-((1-(isopropylsulfonyl)piperidin-3-yl)methyl)-1H-pyrazolo[3,4-d]pyrimidin-6-amine]",,,
1000 to 10000,< 100,"CCN1CCCC(Cn2ncc3cnc(Nc4cnn(C)c4)nc32)C1 (centres unmarked) [Example 55, 1-((1-ethylpiperidin-3-yl)methyl)-N-(1-methyl-1H-pyrazol-4-yl)-1H-pyrazolo[3,4-d]pyrimidin-6-amine]",,,
1000 to 10000,100 to 1000,"Cn1cc(Nc2ncc3cnn(C4CCN(S(C)(=O)=O)CC4)c3n2)cn1 [Example 3, N-(1-methyl-1H-pyrazol-4-yl)-1-(1-(methylsulfonyl)piperidin-4-yl)-1H-pyrazolo[3,4-d]pyrimidin-6-amine]",,,
1000 to 10000,100 to 1000,"N#CCN1CCCC(Cn2ncc3cnc(Nc4cnn(CC(F)F)c4)nc32)C1 (centres unmarked) [Example 60, 2-(3-((6-((1-(2,2-difluoroethyl)-1H-pyrazol-4-yl)amino)-1H-pyrazolo[3,4-d]pyrimidin-1-yl)methyl)piperidin-1-yl)acetonitrile]",,,
1000 to 10000,< 100,"CC(C)S(=O)(=O)N1CCCC(Cn2ncc3cnc(Nc4cnn(C)c4)nc32)C1 (centres unmarked) [Example 32, 1-((1-(isopropylsulfonyl)piperidin-3-yl)methyl)-N-(1-methyl-1H-pyrazol-4-yl)-1H-pyrazolo[3,4-d]pyrimidin-6-amine]",,,
